The target in series [1] is T1, bovine trypsin (Bos taurus, UniProt P00760).
T1 sequence (P00760 24-246): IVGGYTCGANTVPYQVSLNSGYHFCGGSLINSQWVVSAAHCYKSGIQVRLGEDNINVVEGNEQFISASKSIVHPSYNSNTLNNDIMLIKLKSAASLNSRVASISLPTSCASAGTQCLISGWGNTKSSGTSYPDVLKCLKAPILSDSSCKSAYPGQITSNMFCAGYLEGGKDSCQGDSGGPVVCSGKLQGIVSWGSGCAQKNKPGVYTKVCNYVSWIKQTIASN
The series can be described thus: Inactivation rate of bovine trypsin, incubation method. The format is biochemical. The conditions noted are these: Table II; 0.13 μM trypsin, 0.25-42 μM inhibitor, 80 mM Hepes pH 7.5, 1 mM CaCl2, 8% DMSO, 25° C.; NI = no inhibition. The procedure, abridged: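 Incubation method: trypsin pre-incubated with inhibitor (0.25-42 μM) at 25° C in 80 mM Hepes, 1 mM CaCl2, pH 7.5, 8% DMSO; aliquots withdrawn over time for residual activity on Z-Arg-SBzl thioester with DTNB or 4,4'-dithiodipyridine. Pseudo-first-order kobs from ln vt/vo versus time.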

In series [2] the target is T2, human thrombin (Homo sapiens, UniProt P00734).
T2 construct: bovine trypsin, human thrombin
It is filed as biochemical. Particulars: 25° C., NI = no inhibition. Put shortly:
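Irreversible inactivation followed by incubation method at 25 °C: 0.07 μM thrombin with 0.25–42 μM inhibitor in 80 mM Hepes pH 7.5, 428 mM NaCl, 8% DMSO. Residual activity of withdrawn aliquots measured with thioester or 4-nitroanilide substrates; kobs from pseudo-first-order fits.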

Series [3] deals with T3, factor Xa (Homo sapiens, UniProt P00742).
T3 construct: human thrombin, factor Xa, plasmin
T3 sequence (P00742 235-488 limits assumed): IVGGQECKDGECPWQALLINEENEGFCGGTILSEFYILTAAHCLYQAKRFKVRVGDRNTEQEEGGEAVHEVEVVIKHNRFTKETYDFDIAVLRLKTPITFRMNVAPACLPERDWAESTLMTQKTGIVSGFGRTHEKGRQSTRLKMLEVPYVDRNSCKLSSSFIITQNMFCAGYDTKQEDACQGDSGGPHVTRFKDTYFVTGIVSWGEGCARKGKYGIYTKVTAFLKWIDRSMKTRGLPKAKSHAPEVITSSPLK
T3 sequence (P00742 41-179 partner limits assumed): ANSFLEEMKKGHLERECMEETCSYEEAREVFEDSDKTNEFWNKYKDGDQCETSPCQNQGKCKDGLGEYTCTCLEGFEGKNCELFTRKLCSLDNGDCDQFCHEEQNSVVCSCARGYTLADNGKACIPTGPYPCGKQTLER
The series can be described thus: Inactivation rate of factor Xa, incubation method. The format is biochemical. Particulars: Table II; 0.42 μM factor Xa, 66 μM inhibitor, 80 mM Hepes pH 7.5, 428 mM NaCl, 8% DMSO, 25° C. Here is the method: (§1) Inactivation rates of serine proteases by aryl diesters of peptidyl derivatives of α-aminoalkylphosphonates were measured by the incubation method. An aliquot of inhibitor (25 or 50 μl) in Me2 SO was added to a buffered enzyme solution (0.01-2.3 μM) to initiate the inactivation. Aliquots (50 μl) were withdrawn at various intervals and the residual enzymatic activity was measured. Me2 SO concentration in the reaction mixture was 8-12% (v/v). A 0.1 M HEPES, 0.01 M CaCl2, pH 7.5 buffer was utilized for trypsin and trypsin-like enzymes. A 0.1 M HEPES, 0.5 M NaCl, pH 7.5, was utilized for the other serine proteases. Peptide thioesters or peptide nitroanilides with the appropriate sequences were used as substrates for various serine proteases. All peptide thioesters hydrolysis rates were measured with the assay mixture containing 4,4'-dithiodipyridine {ε324 =19800 M^-1 cm^-1; Grasetti & Murray, Arch. Biochem. Biophys. 1967, 119, 41-48}. Peptide 4-nitroanilide hydrolysis was measured at 410 nm {ε410 =8800 M^-1 cm^-1; Erlanger et al., Arch. Biochem. Biophys. 1961, 95, 271-278}. First order inactivation rate constants (Kobs) were obtained from plots of In vt /vo vs time, and the correlation coefficients were greater then 0.98.
^a Enzyme was incubated with the inhibitor in 250 μL of the proper
NaCl, 0.8 mM Mes, 9% glycerol and 8% DMSO; 0.42 μM factor Xa, 66 μM
inhibitor in an 80 mM Hepes, pH 7.5 buffer containing 428 mM NaCl and 8%
DMSO. Aliquots of 25 μL were withdrawn at various intervals and the
(§2) residual enzymatic activity was measured as described in experimental
(§3) section. The kobs values were calculated from pseudofirst-order

Series [4] is described as follows: Hydrolysis (stability) in human plasma. It is filed as in vitro ADME. From the text:
Furthermore, they show excellent stability in human plasma. For example Suc-Val-Pro-Phe^P (OPh)2 has a hydrolysis half-time in human plasma of about 20 hrs. […] Thus they can be used under a variety of conditions. Phosphonates have the additional advantage of being very stable in plasma and will have a high effectiveness in vivo due to their long lifetimes.

Series [5] deals with mast cell tryptase (Homo sapiens, UniProt Q15661). Description: Inactivation rate of mast cell tryptase, incubation method. The format is biochemical. Particulars: Table III; enzyme 0.06-0.5 μM, inhibitor 0.25-42 μM, 9% DMSO, 25° C.; NI = no inhibition. Put shortly: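 Incubation method at 25 °C: 0.07 μM tryptase with 20–66 μM inhibitor in Hepes pH 7.5 containing heparin, glycerol and DMSO. Aliquots were withdrawn at intervals for residual activity on Z-Arg-SBzl or Z-Lys-SBzl with DTNB. Pseudo-first-order kobs came from ln(vt/v0) versus time.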
mast cell tryptase, sequence (Q15661 31-275): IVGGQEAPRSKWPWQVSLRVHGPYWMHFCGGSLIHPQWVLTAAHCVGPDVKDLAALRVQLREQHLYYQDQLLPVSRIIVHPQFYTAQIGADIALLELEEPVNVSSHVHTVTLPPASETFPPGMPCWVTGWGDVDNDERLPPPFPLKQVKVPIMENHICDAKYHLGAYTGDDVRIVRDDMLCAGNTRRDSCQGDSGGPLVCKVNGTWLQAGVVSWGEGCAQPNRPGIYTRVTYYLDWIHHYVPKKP

The target in series [6] is T4, plasmin (Homo sapiens, UniProt P00747).
T4 construct: factor Xa, plasmin, and urokinase
T4 sequence (P00747 581-810 limits assumed, species assumed): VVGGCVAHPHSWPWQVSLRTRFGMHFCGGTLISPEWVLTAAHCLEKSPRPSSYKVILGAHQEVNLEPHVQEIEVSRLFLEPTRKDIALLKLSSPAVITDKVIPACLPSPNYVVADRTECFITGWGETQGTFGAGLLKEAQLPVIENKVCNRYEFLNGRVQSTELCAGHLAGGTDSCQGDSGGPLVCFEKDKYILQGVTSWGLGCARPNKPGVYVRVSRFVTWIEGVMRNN
T4 sequence (P00747 97-580 partner limits assumed, species assumed): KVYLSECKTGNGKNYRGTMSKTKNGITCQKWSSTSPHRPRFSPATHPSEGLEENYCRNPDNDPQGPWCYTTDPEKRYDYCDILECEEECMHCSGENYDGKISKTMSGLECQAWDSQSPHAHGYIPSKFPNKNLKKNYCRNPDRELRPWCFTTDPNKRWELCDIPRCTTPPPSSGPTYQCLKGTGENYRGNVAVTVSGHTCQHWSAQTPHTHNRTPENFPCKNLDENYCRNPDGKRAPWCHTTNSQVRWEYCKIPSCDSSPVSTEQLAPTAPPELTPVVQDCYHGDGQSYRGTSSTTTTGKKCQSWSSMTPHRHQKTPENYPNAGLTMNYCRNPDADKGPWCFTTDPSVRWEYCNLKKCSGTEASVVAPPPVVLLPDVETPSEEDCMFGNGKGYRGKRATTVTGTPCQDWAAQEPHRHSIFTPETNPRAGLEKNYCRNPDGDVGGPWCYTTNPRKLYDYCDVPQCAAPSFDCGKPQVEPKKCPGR
Description: Inactivation rate of plasmin, incubation method. It is filed as biochemical. The conditions noted are these: Table III; enzyme 0.06-0.5 μM, inhibitor 0.25-42 μM, 9% DMSO, 25° C.; NI = no inhibition. Here is the method: as §1
(§4) ^a Enzyme (0.06-0.5 μM) was incubated with the inhibitor (0.25-42
(§5) μM) in 250 μL of the proper buffer containing 9% DMSO at 25°
(§6) C. The final inhibition reaction mixtures are given in the footnote to
(§7) Table 1. Aliquots of 25 μL were withdrawn at various intervals and the
as §2, §3
^b Inhibitor concentration of 0.24 mM.

Series [7] addresses T1, bovine trypsin. Description: Inactivation rate of bovine trypsin, incubation method. The conditions noted are these: Table III; enzyme 0.06-0.5 μM, inhibitor 0.25-42 μM, 9% DMSO, 25° C.; NI = no inhibition. The format is biochemical.
Series [8] addresses urokinase (Homo sapiens, UniProt P00749). The series can be described thus: Inactivation rate of urokinase, incubation method. The conditions noted are these: Table III; enzyme 0.06-0.5 μM, inhibitor 0.25-42 μM, 9% DMSO, 25° C.; NI = no inhibition. The format is biochemical. How it is done:
as §1, §4, §5, §6, §7, §2, §3

Setting [9] is: Table II, 0.07 μM thrombin, 0.25-42 μM inhibitor, 80 mM Hepes pH 7.5, 428 mM NaCl, 8% DMSO.
Where [10] appears, read: Table III, enzyme 0.06-0.5 μM, inhibitor 0.25-42 μM, 9% DMSO.

Molecules are shown by their SMILES. Where two headings read alike, the source gives them in different places.

These results are taken from US5952307A, “Basic α-aminoalkylphosphonate derivatives” (priority 1997, dated 1999).

In the case of `CC(C)CC(NC(=O)OC(C)(C)C)C(=O)NCC(=O)NC(c1ccc(C(=N)N)cc1)P(=O)(Oc1ccccc1)Oc1ccccc1` (mixture of isomers) [Boc--D--Leu--Gly-(4-AmPhGly)^P (OPh)2], the “kobs /[I] bovine trypsin” value in series [1] is 2,960 ± 300 M^-1 s^-1. In addition, in series [2] (setting [9]), the “kobs /[I] human thrombin” value is 1,187 ± 76 M^-1 s^-1. Further, in series [3], the “kobs /[I] factor Xa” value was 10 ± 0.4 M⁻¹ s⁻¹.
On the same counts, the results for `N=C(N)c1ccc(C(NC(=O)CNC(=O)C(CCC(=O)O)NC(=O)OCc2ccccc2)P(=O)(Oc2ccccc2)Oc2ccccc2)cc1` (mixture of isomers) [Cbz--Glu--Gly-(4-AmPhGly)^P (OPh)2] are 70 ± 5 M⁻¹ s⁻¹, 46 ± 5 M⁻¹ s⁻¹ and 1.4 ± 0.1 M⁻¹ s⁻¹.
As to `CC(C)CC(NC(=O)C(Cc1ccccc1)NC(=O)OC(C)(C)C)C(=O)NC(c1ccc(C(=N)N)cc1)P(=O)(Oc1ccccc1)Oc1ccccc1` (mixture of isomers) [Boc--D--Phe--Leu-(4-AmPhGly)^P (OPh)2], in series [1], the “kobs /[I] bovine trypsin” value is 24 ± 2 M⁻¹ s⁻¹. Also, the “kobs /[I] human thrombin” value in series [2] (setting [9]) stood at 921 ± 44 M⁻¹ s⁻¹. Also, the “kobs /[I] factor Xa” value in series [3] was 1.4 ± 0.4 M⁻¹ s⁻¹.
On the same counts, the results for `CC(C)CC(NC(=O)OC(C)(C)C)C(=O)NC(CC(=O)OC(C)(C)C)C(=O)N1CCCC1C(=O)NC(c1ccc(C(=N)N)cc1)P(=O)(Oc1ccccc1)Oc1ccccc1` (mixture of isomers) [Boc--Leu--Asp(O-t-Bu)--Pro-(4-AmPhGly)^P (OPh)2] are 670 ± 53 M⁻¹ s⁻¹, 502 ± 21 M⁻¹ s⁻¹ and 8 ± 1 M⁻¹ s⁻¹.
Regarding `CC(C)[C@H](NC(=O)CCC(=O)O)C(=O)N1CCC[C@H]1C(=O)NC(Cc1ccccc1)P(=O)(Oc1ccccc1)Oc1ccccc1` (stereo partly drawn) [Suc-Val-Pro-Phe^P (OPh)2], in series [4], the “hydrolysis half-time in human plasma” value is on record as “about 20 hrs”.
Consider `Cl.NCCCCC(NC(=O)[C@@H]1CCCN1C(=O)c1cccc(Oc2ccccc2)c1)P(=O)(Oc1ccccc1)Oc1ccccc1` (some centres unmarked) [3-Phenoxybenzoyl-Pro--Lys^P (OPh)2, Diphenyl 1-(N-(3-Phenoxybenzoylprolyl)amino)-5-aminopentanephosphonate Hydrochloride], for which the “kobs /[I] mast cell tryptase” value in series [5] stood at 16 ± 1 M⁻¹ s⁻¹. Also, the “kobs /[I] plasmin” value in series [6] was found to be 7.4 ± 0.6 M⁻¹ s⁻¹. For the same molecule, in series [2] (setting [10]), the “kobs /[I] human thrombin” value was 1,142 ± 52 M^-1 s^-1. For the same molecule, the “kobs /[I] bovine trypsin” value in series [7] was 19,380 ± 300 M^-1 s^-1. In series [8], the “kobs /[I] urokinase” value amounted to 1.6 ± 0.1 M⁻¹ s⁻¹.
As to `CC(C)(C)OC(=O)NC(Cc1ccccc1)C(=O)NCC(=O)NC(c1ccc(C(=N)N)cc1)P(=O)(Oc1ccccc1)Oc1ccccc1` (mixture of isomers) [Boc--D--Phe--Gly-(4-AmPhGly)^P (OPh)2], the “kobs /[I] bovine trypsin” value in series [1] was 6,620 ± 835 M^-1 s^-1. Moreover, the “kobs /[I] human thrombin” value in series [2] (setting [9]) is on record as 2,225 ± 106 M^-1 s^-1. In addition, in series [3], the “kobs /[I] factor Xa” value was 2.8 ± 0 M⁻¹ s⁻¹.
Take `Cl.NCCCCCC(NC(=O)[C@@H]1CCCN1C(=O)c1ccccc1Oc1ccccc1)P(=O)(Oc1ccccc1)Oc1ccccc1` (some centres unmarked) [2-Phenoxybenzoyl-Pro-HomoLys^P (OPh)2, Diphenyl 1-(N-(2-Phenoxybenzoylprolyl)amino)-6-aminohexanephosphonate Hydrochloride]: the “kobs /[I] mast cell tryptase” value in series [5] turned out to be 7.7 ± 0.3 M⁻¹ s⁻¹. Further, the “kobs /[I] plasmin” value in series [6] came to 3.6 ± 0.4 M⁻¹ s⁻¹. In series [2] (setting [10]), the “kobs /[I] human thrombin” value was found to be 57 ± 5 M⁻¹ s⁻¹. Also, in series [7], the “kobs /[I] bovine trypsin” value was determined as 69 ± 13 M⁻¹ s⁻¹. Further, the “kobs /[I] urokinase” value in series [8] stood at 24 ± 4 M⁻¹ s⁻¹.
As for `CC(C)(C)OC(=O)NC(CO)C(=O)NC(c1ccc(C(=N)N)cc1)P(=O)(Oc1ccccc1)Oc1ccccc1` (mixture of isomers) [Boc--Ser-(4-AmPhGly)^P (OPh)2], in series [1], the “kobs /[I] bovine trypsin” value was 20 ± 1 M⁻¹ s⁻¹. In addition, the “kobs /[I] human thrombin” value in series [2] (setting [9]) was found to be 31 ± 2 M⁻¹ s⁻¹. In addition, the “kobs /[I] factor Xa” value in series [3] stood at 3.5 ± 0.4 M⁻¹ s⁻¹.
On the same counts, the results for `CC(C)CC(N)C(=O)NC(CC(=O)O)C(=O)N1CCCC1C(=O)NC(c1ccc(C(=N)N)cc1)P(=O)(Oc1ccccc1)Oc1ccccc1` (mixture of isomers) [Leu--Asp--Pro-(4-AmPhGly)^P (OPh)2] are 204 ± 19 M⁻¹ s⁻¹, 65 ± 1 M⁻¹ s⁻¹ and 1.3 ± 0.2 M⁻¹ s⁻¹.
As to `NCCCCC(NC(=O)[C@@H]1CCCN1C(=O)CC(c1ccccc1)c1ccccc1)P(=O)(Oc1ccccc1)Oc1ccccc1` (some centres unmarked) [3,3-Diphenylpropanoyl-Pro--Lys^P (OPh)2], the “kobs /[I] mast cell tryptase” value in series [5] came to 74 ± 9 M⁻¹ s⁻¹. In addition, the “kobs /[I] plasmin” value in series [6] worked out at 7.0 ± 0.2 M⁻¹ s⁻¹. Moreover, the “kobs /[I] human thrombin” value in series [2] (setting [10]) was 27,450 ± 803 M^-1 s^-1. The “kobs /[I] bovine trypsin” value in series [7] was 14,447 ± 905 M^-1 s^-1. The “kobs /[I] urokinase” value in series [8] stood at 1.5 ± 0.0 M⁻¹ s⁻¹.
With `NCCCCCC(NC(=O)C1CCCN1C(=O)CNS(=O)(=O)Cc1ccccc1)P(=O)(Oc1ccccc1)Oc1ccccc1` (mixture of isomers) [PhCH2 SO2 Gly--Pro-HomoLys^P (OPh)2], the “kobs /[I] mast cell tryptase” value in series [5] is 32 ± 2 M⁻¹ s⁻¹. Further, the “kobs /[I] plasmin” value in series [6] is 8.4 ± 0.2 M⁻¹ s⁻¹. Also, the “kobs /[I] human thrombin” value in series [2] (setting [10]) stood at 137 ± 12 M⁻¹ s⁻¹. Also, the “kobs /[I] bovine trypsin” value in series [7] was 528 ± 59 M⁻¹ s⁻¹. Further, in series [8], the “kobs /[I] urokinase” value was 38 ± 3 M⁻¹ s⁻¹.
In the same order, the values of `Cl.NCCCCC(NC(=O)[C@@H]1CCCN1C(=O)c1ccccc1Oc1ccccc1)P(=O)(Oc1ccccc1)Oc1ccccc1` (some centres unmarked) [2-Phenoxybenzoyl-Pro--Lys^P (OPh)2, Diphenyl 1-(N-(2-Phenoxybenzoylprolyl)amino)-5-aminopentanephosphonate Hydrochloride] are 19 ± 1 M⁻¹ s⁻¹, 7.1 ± 0.2 M⁻¹ s⁻¹, 4,531 ± 140 M^-1 s^-1, 16,411 ± 460 M^-1 s^-1 and 0.6 ± 0.1 M⁻¹ s⁻¹.
